What all share (type): in vivo, humans
Experiment [1] concerns bitter taste of an aqueous solution of KCl. Description: Sip and spit bitterness rating of aqueous KCl test solutions. Conditions: Homo sapiens; aqueous KCl 4.85 g/L, 1% EtOH; bitterness scored 0-15 vs KCl standard; dash = none of the tested conc.; read-out: Conc. Where Decrease in Bitter Taste Discerned and p ≦ 0.1. How it is done:
An amount of this stock compound solution is then added to an aqueous KCl solution. Enough EtOH is then added to the resulting stock compound/KCl solution so that the final KCl test solution contains 1% EtOH. KCl solution standards were similarly prepared by dissolving various amounts of KCl in water and ethanol without adding any test compound.
The effect of the test compounds an the perception of the bitter taste of an aqueous solution of KCl in humans was evaluated using a “sip and spit” test as follows.
(§1) A set of KCl solution standards was developed and each standard solution was assigned a bitterness taste score of 0-15 (corresponding to aqueous KCl concentrations of 0 mM-120 mM). Panelists were trained to recognize these standards. In addition, before each day of testing, panelists were tested to see if they could determine differences in taste between the standard solutions. If a panelist was unable to recognize a change in KCl concentration, they were excluded from the panel for that day.
(§2) In a blind taste test, panelists were asked to compare the bitter taste of a small quantity (e.g., 8 ml) of each of the KCl Test Solutions to the taste of a KCl solution standard, without swallowing (see, e.g., Table 1). Specifically, panelists were asked to rate the bitterness of each KCl Test Solution on a scale of 0-15 using the same scale developed for the KCl solution standards. Each sample was tested in 2-4 discrete taste test experiments. Panelists were asked to rinse with water, eat a cracker, and wait approximately 10 minutes between samples.

In experiment [2] the test system is bitter taste of an aqueous solution of potassium lactate. Description: Sip and spit bitterness rating of aqueous potassium lactate test solutions. Conditions: Homo sapiens, aqueous potassium lactate 41 g/L, 1% EtOH, dash = none of the tested conc. How it is done: as §1, §2
Edible potassium lactate solution compositions (“potassium lactate test solutions”) were prepared by first dissolving varying amounts of the test compounds in an amount of ethanol or water (depending on the solubility of the compound) to create a 5 mg/mL stock compound solution. An amount of this stock compound solution is then added to an aqueous potassium lactate solution. Enough EtOH is then added to the resulting stock compound/potassium lactate solution so that the final potassium lactate test solution contains 1% EtOH. Potassium lactate solution standards were similarly prepared by dissolving various amounts of potassium lactate in water and ethanol without adding any test compound.
The effect of the test compounds on the perception of the bitter taste of an aqueous solution of potassium lactate in humans was evaluated using the “sip and spit” test described in Example 2.

Experiment [3] deals with bitter taste of KCl foodstuff slurries. Description: Latin Square-2AFC sip and spit test of KCl turkey slurry. Particulars: 1.6% KCl, dash = none of the tested conc. How it is done:
The effect of the test compounds on the perception of the bitter taste of KCl foodstuff slurries in humans was evaluated using a “sip and spit” test using a Latin Square-2AFC testing method as follows.
In a blind taste test, panelists received two portions of turkey slurry—one portion being the KCl foodstuff slurry standard and the other being one of the KCl test foodstuff slurries (prepared as described in Example 5). NaCl foodstuff slurry standards were prepared as described in Example 1.
The panelists tasted each of the portions by sipping and spitting. In order to eliminate any effects of sample order, a complete Latin Square design was employed so that each possible order of sample presentation was utilized across subjects. Each sample was tested in several discrete taste test experiments. Panelists were asked to rinse with water, eat a cracker, and wait about 10 minutes between samples. In each case, the panelists were asked to choose the sample that tasted less bitter.

The test system of experiment [4] is bitter taste of an aqueous solution of KCl. In words: Latin Square-2AFC sip and spit test of aqueous KCl solutions. Conditions: Homo sapiens; aqueous KCl 4.85 g/L, Latin Square-2AFC vs KCl standard; dash = none of the tested conc.; read-out: Conc. at Which At Least 50% of Panelist Discerned Decrease in Bitter Taste. How it is done:
The effect of the test compounds on the perception of the bitter taste of an aqueous solution of KCl in humans was evaluated using a “sip and spit” test using a Latin Square-2AFC testing method as follows.
In a blind taste test, panelists were asked to compare the bitter taste of a small quantity (e.g., 8 ml) of a KCl Test Solution to the taste of a KCl solution standard (prepared as described in Example 1), without swallowing. NaCl solution standards were prepared as described in Example 1.
In order to eliminate any effects of sample order, a complete Latin Square design was employed so that each possible order of sample presentation was utilized across subjects. Each sample was tested in several discrete taste test experiments. Panelists were asked to rinse with water, eat a cracker, and wait about 10 minutes between samples. In each case, the panelists were asked to choose the sample which tasted “less bitter.” Illustrative results of the aqueous solution Latin Square-2AFC testing are presented in Table 5.

For experiment [5], the system named is bitter taste of KCl in solid-matrix foodstuffs. Description: Latin Square-2AFC chew and spit test of KCl solid turkey. Conditions: Homo sapiens, 1.6% KCl (80% KCl:20% NaCl marinade), dash = none of the tested conc., read-out: Conc. at Which At Least 50% of Panelist Discerned Decrease in Bitter Taste. How it is done:
The effect of the test compounds on the perception of the bitter taste of KCl in solid-matrix foodstuffs in humans was evaluated using a “chew and spit” test using a Latin Square-2AFC testing method as follows.
Two types of marinades containing Prague powder, sugar, Evian™ water, KCl and/or NaCl in water were prepared. One marinade contained 80% KCl, 20% NaCl (by weight) (i.e., marinade concentration of […]). A second marinade contained 60% KCl:40% NaCl (by weight) (i.e., marinade concentration of 1.2% KCl). Compound stock solutions were prepared by dissolving an amount of test compound in ethanol or water (depending on the solubility of the compound) to create a 5 mg/mL stock compound solution. Enough ethanol was added to each stock compound solution to generate a final stock compound solution containing 1% ethanol. The marinade, the stock compound solution and ground turkey were added to a mixing bowl, mixed at low-speed for about 2 minutes, and then mixed at high-speed for about 5 minutes. The marinated turkey mixture was divided into one pound aliquots, vacuum sealed into food saver bags, and allowed to marinate for about 2 hours in a refrigerator. The vacuum-sealed turkey was then cooked in an about 86° C. water bath for about 30 minutes. If after about 30 minutes, the internal turkey temperature had not reached about 170° F., the vacuum-sealed turkey was cooked for about an additional 5 minutes. The vacuum-sealed turkey was then refrigerated for about two weeks before taste testing. KCl standards were similarly prepared by dissolving KCl in the marinade without adding any test compound during the turkey preparation.
The panelists tasted portions by chewing and spitting. In order to eliminate any effects of sample order, a complete Latin Square design was employed so that each possible order of sample presentation was utilized across subjects. Each simple was tested in several discrete taste test experiments. Panelists were asked to rinse with water, cat a cracker, and wait about 10 minutes between samples. In each case, the panelists were asked to choose the sample that tasted less bitter.

The mark [6] stands for this setting: read-out: Conc. Where Decrease in Bitter Taste Was Discerned.

Each structure is given as a SMILES string. Where two headings read alike, the source gives them in different places.

On to `CC(C)=CCC/C(C)=C/COC(=O)Cc1ccccc1` [Compound 26], for which the minimal effective concentration in experiment [1] stood at 1 µg/mL; in experiment [2] (read-out: Conc. Where Decrease in Bitter Taste Discerned and p ≦ 0.1), 10 µg/mL; in experiment [2] (setting [6]), 10 µg/mL. Also, the “Conc. at Which At Least 50% of Panelist Discerned Decrease in Bitter Taste” value in experiment [3] came to 0.6 ppm.

`C/C=C/C(=O)C1C(C)=CCCC1(C)C` (stereo not drawn) [Compound 2]: the minimal effective concentration in experiment [1] is 10 µg/mL; in experiment [2] (setting [6]) it was 1 µg/mL; in experiment [4], 2 µg/mL; in experiment [5], 10 µg/mL. In experiment [3], the “Conc. at Which At Least 50% of Panelist Discerned Decrease in Bitter Taste” value amounted to 25 ppm.

Source of the values: patent US9872514B2, “Compounds, compositions, and methods for reducing or eliminating bitter taste” (Chromocell Corporation, priority 2010, dated 2018).
